From US20260028354A1, “TETRAHYDRONAPHTHALENE DERIVATIVES AS ESTROGEN RECEPTOR DEGRADERS” (REGENT OF THE UNIVERSITY OF MICHIGAN, priority 2022, published 2026)
Read-outs that look alike come from different tables or passages of the source.

Assays:
[1] = Western blot analysis for "B" compounds; assay type: cell-based; settings: read-out: Traditional Western Degradation Potency (DC50)
Method in brief: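 Target protein levels given as relative mean band intensity over GAPDH from scanned immunoblots. Lysates of treated cells in RIPA buffer, equalized by BCA, separated on 10% gels and transferred to PVDF.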

[2] = Cell growth assay (WST-8) for "B" compounds; assay type: cell-based; settings: T47D cell line, read-out: Cell growth Inhibition in T47D cell line IC50
Description: Cell Growth Assay. The cells were seeded at 1500/well in 96 well plates overnight. One day after the seeding, they were treated with indicated doses of compounds respectively, 4 days after the compound treatment, 10% WST-8 reagent was added to the culture medium and incubate in a CO2 incubator at 37° C. for 2.5 hours. Before reading, the plate was mixed gently on an orbital shaker for one minute to ensure homogeneous distribution of color. The absorbance was measured of each sample using a microplate reader at a wavelength of 450 nm. The relative absorbance was calculated against the vehicle control from three individually repeats.

SMILES | DC50 [1] | IC50 ([2]; T47D) | IC50 [2]
C[C@H]1CC2(CCN(C(=O)CN3Cc4cc5c(cc4C3)C(=O)N(C3CCC(=O)NC3=O)C5=O)CC2)CN1c1ccc([C@@H]2c3ccc(O)cc3CC[C@@H]2c2ccccc2)cc1 (mixture of isomers) [Compound B24, 2-(2,6-dioxopiperidin-3-yl)-6-(2-((S)-2-(4-((1R,2S)-6-hydroxy-2-phenyl-1,2,3,4-tetrahydronaphthalen-1-yl)phenyl)-3-methyl-2,8-diazaspiro[4.5]decan-8-yl)-2-oxoethyl)-6,7-dihydropyrrolo[3,4-f]isoindole-1,3(2H,5H)-dione] | 10 to 100 nM | > 10 nM | –
C[C@H]1CC2(CCN(c3ccc([C@@H]4c5ccc(O)cc5CC[C@@H]4c4ccccc4)cc3)CC2)CN1CC(=O)N1Cc2cc3c(cc2C1)C(=O)N(C1CCC(=O)NC1=O)C3=O (mixture of isomers) [Compound B30, 2-(2,6-dioxopiperidin-3-yl)-6-(2-((S)-8-(4-((1R,2S)-6-hydroxy-2-phenyl-1,2,3,4-tetrahydronaphthalen-1-yl)phenyl)-3-methyl-2,8-diazaspiro[4.5]decan-2-yl)acetyl)-6,7-dihydropyrrolo[3,4-f]isoindole-1,3(2H,5H)-dione] | > 100 nM | > 10 nM | –
O=C1CCC(N2C(=O)c3cc4c(cc3C2=O)CN(CC(=O)N2CC3(CCN(c5ccc([C@@H]6c7ccc(O)cc7CC[C@@H]6c6ccccc6)cc5F)CC3)C2)C4)C(=O)N1 (mixture of isomers) [Compound B43, 2-(2,6-dioxopiperidin-3-yl)-6-(2-(7-(2-fluoro-4-((1R,2S)-6-hydroxy-2-phenyl-1,2,3,4-tetrahydronaphthalen-1-yl)phenyl)-2,7-diazaspiro[3.5]nonan-2-yl)-2-oxoethyl)-6,7-dihydropyrrolo[3,4-f]isoindole-1,3(2H,5H)-dione] | > 100 nM | 1 to 10 nM | –
O=C1CCC(N2C(=O)c3cc4c(cc3C2=O)CN(CC(=O)N2CC3(CCN(c5ccc([C@@H]6c7ccc(O)cc7CC[C@@H]6c6ccccc6)c(F)c5)CC3)C2)C4)C(=O)N1 (mixture of isomers) [Compound B44, 2-(2,6-dioxopiperidin-3-yl)-6-(2-(7-(3-fluoro-4-((1S,2S)-6-hydroxy-2-phenyl-1,2,3,4-tetrahydronaphthalen-1-yl)phenyl)-2,7-diazaspiro[3.5]nonan-2-yl)-2-oxoethyl)-6,7-dihydropyrrolo[3,4-f]isoindole-1,3(2H,5H)-dione] | 10 to 100 nM | > 10 nM | –
O=C1CCC(N2C(=O)c3cc4c(cc3C2=O)CN(CC(=O)N2CCC3(CC2)CCN(c2c(F)cc([C@@H]5c6ccc(O)cc6CC[C@@H]5c5ccccc5)cc2F)CC3)C4)C(=O)N1 (mixture of isomers) [Compound B45, 6-(2-(9-(2,6-difluoro-4-((1R,2S)-6-hydroxy-2-phenyl-1,2,3,4-tetrahydronaphthalen-1-yl)phenyl)-3,9-diazaspiro[5.5]undecan-3-yl)-2-oxoethyl)-2-(2,6-dioxopiperidin-3-yl)-6,7-dihydropyrrolo[3,4-f]isoindole-1,3(2H,5H)-dione] | > 100 nM | > 10 nM | –
O=C1CCC(N2C(=O)c3cc4c(cc3C2=O)CN(CC(=O)N2CCC3(CC2)CCN(c2cc(F)c([C@@H]5c6ccc(O)cc6CC[C@@H]5c5ccccc5)c(F)c2)CC3)C4)C(=O)N1 (mixture of isomers) [Compound B46, 6-(2-(9-(3,5-difluoro-4-((1S,2S)-6-hydroxy-2-phenyl-1,2,3,4-tetrahydronaphthalen-1-yl)phenyl)-3,9-diazaspiro[5.5]undecan-3-yl)-2-oxoethyl)-2-(2,6-dioxopiperidin-3-yl)-6,7-dihydropyrrolo[3,4-f]isoindole-1,3(2H,5H)-dione] | > 100 nM | > 10 nM | –
O=C1CCC(N2C(=O)c3cc4c(cc3C2=O)CN(CC(=O)N2CCC3(CC2)CCN(c2ccc([C@@H]5c6ccc(O)cc6CC[C@@H]5C5CCCCC5)cc2)CC3)C4)C(=O)N1 (mixture of isomers) [Compound B47, 6-(2-(9-(4-((1R,2R)-2-cyclohexyl-6-hydroxy-1,2,3,4-tetrahydronaphthalen-1-yl)phenyl)-3,9-diazaspiro[5.5]undecan-3-yl)-2-oxoethyl)-2-(2,6-dioxopiperidin-3-yl)-6,7-dihydropyrrolo[3,4-f]isoindole-1,3(2H,5H)-dione] | 10 to 100 nM | 1 to 10 nM | –
O=C1CCC(N2C(=O)c3cc4c(cc3C2=O)CN(CC(=O)N2CCC3(CC2)CCN(c2ccc([C@@H]5c6ccc(O)cc6CC[C@@H]5C5CCC(F)(F)CC5)cc2)CC3)C4)C(=O)N1 (mixture of isomers) [Compound B48, 6-(2-(9-(4-((1R,2R)-2-(4,4-difluorocyclohexyl)-6-hydroxy-1,2,3,4-tetrahydronaphthalen-1-yl)phenyl)-3,9-diazaspiro[5.5]undecan-3-yl)-2-oxoethyl)-2-(2,6-dioxopiperidin-3-yl)-6,7-dihydropyrrolo[3,4-f]isoindole-1,3(2H,5H)-dione] | 10 to 100 nM | 1 to 10 nM | –
O=C1CCC(N2C(=O)c3cc4c(cc3C2=O)CN(CC(=O)N2CCC3(CC2)CCN(c2ccc([C@@H]5c6ccc(B(O)O)cc6CC[C@@H]5c5ccccc5)cc2)CC3)C4)C(=O)N1 (mixture of isomers) [Compound B50, ((5R,6S)-5-(4-(9-(2-(6-(2,6-dioxopiperidin-3-yl)-5,7-dioxo-3,5,6,7-tetrahydropyrrolo[3,4-f]isoindol-2(1H)-yl)acetyl)-3,9-diazaspiro[5.5]undecan-3-yl)phenyl)-6-phenyl-5,6,7,8-tetrahydronaphthalen-2-yl)boronic acid] | 10 to 100 nM | > 10 nM | –
O=C1CCC(N2C(=O)c3cc4c(cc3C2=O)CN(CC(=O)N2CCC3(CC2)CCN(c2ccc([C@@H]5c6ccc(O)cc6CCC56CCCC6)cc2)CC3)C4)C(=O)N1 (stereo in doubt) [Compound B49, 2-(2,6-dioxopiperidin-3-yl)-6-(2-(9-(4-(6'-hydroxy-3',4'-dihydro-1'H-spiro[cyclopentane-1,2'-naphthalen]-1'-yl)phenyl)-3,9-diazaspiro[5.5]undecan-3-yl)-2-oxoethyl)-6,7-dihydropyrrolo[3,4-f]isoindole-1,3(2H,5H)-dione] | 10 to 100 nM | 1 to 10 nM | –
O=C1CCC(N2C(=O)c3cc4c(cc3C2=O)CN(CC(=O)N2CC3(CCN(c5ccc([C@@H]6c7ccc(O)cc7CC[C@@H]6c6ccccc6)cc5)CC3)C2)C4)C(=O)N1 (stereo partly drawn) [Compound B28, 2-(2,6-dioxopiperidin-3-yl)-6-(2-(7-(4-((1R,2S)-6-hydroxy-2-phenyl-1,2,3,4-tetrahydronaphthalen-1-yl)phenyl)-2,7-diazaspiro[3.5]nonan-2-yl)-2-oxoethyl)-6,7-dihydropyrrolo[3,4-f]isoindole-1,3(2H,5H)-dione] | < 10 nM | – | 1 to 10 nM
O=C1CCC(N2C(=O)c3cc4c(cc3C2=O)CCN(CC(=O)N2CCC3(CC2)CCN(c2ccc([C@@H]5c6ccc(O)cc6CC[C@@H]5c5ccc(F)cc5)cc2)CC3)CC4)C(=O)N1 (stereo partly drawn) [Compound B52, 2-(2,6-dioxopiperidin-3-yl)-7-(2-(9-(4-((1R,2S)-2-(4-fluorophenyl)-6-hydroxy-1,2,3,4-tetrahydronaphthalen-1-yl)phenyl)-3,9-diazaspiro[5.5]undecan-3-yl)-2-oxoethyl)-6,7,8,9-tetrahydroazepino[4,5-f]isoindole-1,3(2H,5H)-dione] | > 100 nM | 1 to 10 nM | –
O=C1CCC(N2C(=O)c3cc4c(cc3C2=O)CN(CC2CCN(C(=O)C3CCN(c5ccc([C@@H]6c7ccc(O)cc7CC[C@@H]6c6ccccc6)cc5)CC3)CC2)C4)C(=O)N1 (stereo partly drawn) [Compound B56, 2-(2,6-dioxopiperidin-3-yl)-6-((1-(1-(4-((1R,2S)-6-hydroxy-2-phenyl-1,2,3,4-tetrahydronaphthalen-1-yl)phenyl)piperidine-4-carbonyl)piperidin-4-yl)methyl)-6,7-dihydropyrrolo[3,4-f]isoindole-1,3(2H,5H)-dione] | 10 to 100 nM | 1 to 10 nM | –
O=C1CCC(N2C(=O)c3cc4c(cc3C2=O)CN(C(=O)C2CCN(CC3CCN(c5ccc([C@@H]6c7ccc(O)cc7CC[C@@H]6c6ccccc6)cc5)CC3)CC2)C4)C(=O)N1 (stereo partly drawn) [Compound B57, 2-(2,6-dioxopiperidin-3-yl)-6-(1-((1-(4-((1R,2S)-6-hydroxy-2-phenyl-1,2,3,4-tetrahydronaphthalen-1-yl)phenyl)piperidin-4-yl)methyl)piperidine-4-carbonyl)-6,7-dihydropyrrolo[3,4-f]isoindole-1,3(2H,5H)-dione] | > 100 nM | 1 to 10 nM | –
O=C1CCC(N2C(=O)c3cc4c(cc3C2=O)CN(C2CCN(CC3CCN(c5ccc([C@@H]6c7ccc(O)cc7CC[C@@H]6c6ccccc6)cc5)CC3)CC2)C4)C(=O)N1 (stereo partly drawn) [Compound B64, 2-(2,6-dioxopiperidin-3-yl)-6-(1-((1-(4-((1R,2S)-6-hydroxy-2-phenyl-1,2,3,4-tctrahydronaphthalcn-1-yl)phenyl)pipcridin-4-yl)methyl)piperidin-4-yl)-6,7-dihydropyrrolo[3,4-f]isoindole-1,3(2H,5H)-dione] | < 10 nM | 1 to 10 nM | –
O=C1CCC(N2C(=O)c3cc4c(cc3C2=O)CN(CC(=O)N2CCC3(CC2)CCN(c2ccc([C@@H]5c6ccc(O)cc6CC[C@@H]5c5ccccc5)cc2)CC3)C4)C(=O)N1 (stereo partly drawn) [Compound B133, 2-(2,6-dioxopiperidin-3-yl)-6-(2-(9-(4-((1R,2S)-6-hydroxy-2-phenyl-1,2,3,4-tetrahydronaphthalen-1-yl)phenyl)-3,9-diazaspiro[5.5]undecan-3-yl)-2-oxoethyl)-6,7-dihydropyrrolo[3,4-f]isoindole-1,3(2H,5H)-dione] | 10 to 100 nM | – | 1 to 10 nM
